Assay results as given in US20100099756A1, “USES OF INCENSOLE, INCENSOLE ACETATE AND DERIVATIVES THEREOF” (YISSUM RESEARCH DEVELOPMENT COMPANY OF THE HEBREW …, priority 2006, published 2010).

Key:
NO generation = test: Nitric oxide (NO) levels in LPS-activated murine peritoneal macrophages; type: cell-based, mice
Method: (§1) (A(1)) Representative Western Blot bands of Cox2 are shown with tubulin as reference. (A(2)) COX-2 levels were measured in RAW 264.7 cells incubated for 24 hrs. with LPS in the presence or in the absence of IA (60 μM/ml); **, p<0.001. (B) Murine peritoneal macrophages were activated by LPS (1 μg/ml for 24 hrs.) in absence of IA or in the presence of IA at indicated concentrations. NO generation was determined by measuring the nitrite accumulated in the supernatants; **, p<0.001. (C) Generation of ROS by RAW 264.7 macrophages (5×10^5 cells in 0.5 ml Hanks' balanced salt solution) was measured by chemiluminescence. Cells were pre-incubated with various doses of IA for 24 hrs before luminol (10 μl) and zymosan (30 μl) were added to the tubes; *, p<0.05; **, p<0.01; ***, p<0.001
Peritoneal macrophages were harvested from C57BL/6 female mice four days after intraperitoneal injection of 1.5 ml of a 3% thioglycollate medium (Difco, N.J., USA). […]
Nitric Oxide (NO) Levels. […] NO generation was determined by measuring the nitrite accumulated in the supernatants (100 μl) of the IA-treated macrophages as follows. […] Following 10 min of incubation at room temperature, the color production was measured at 550 nm with an ELISA reader. The concentration of the nitrite was calculated according to a standard curve.

TRPV1 = TRPV1 (Homo sapiens, UniProt Q8NER1); test: Calcium imaging of TRPV1-transfected HEK293 cells; type: cell-based; settings: IA 100 μM, compared to vehicle
TRPV1, sequence (Q8NER1 whole entry): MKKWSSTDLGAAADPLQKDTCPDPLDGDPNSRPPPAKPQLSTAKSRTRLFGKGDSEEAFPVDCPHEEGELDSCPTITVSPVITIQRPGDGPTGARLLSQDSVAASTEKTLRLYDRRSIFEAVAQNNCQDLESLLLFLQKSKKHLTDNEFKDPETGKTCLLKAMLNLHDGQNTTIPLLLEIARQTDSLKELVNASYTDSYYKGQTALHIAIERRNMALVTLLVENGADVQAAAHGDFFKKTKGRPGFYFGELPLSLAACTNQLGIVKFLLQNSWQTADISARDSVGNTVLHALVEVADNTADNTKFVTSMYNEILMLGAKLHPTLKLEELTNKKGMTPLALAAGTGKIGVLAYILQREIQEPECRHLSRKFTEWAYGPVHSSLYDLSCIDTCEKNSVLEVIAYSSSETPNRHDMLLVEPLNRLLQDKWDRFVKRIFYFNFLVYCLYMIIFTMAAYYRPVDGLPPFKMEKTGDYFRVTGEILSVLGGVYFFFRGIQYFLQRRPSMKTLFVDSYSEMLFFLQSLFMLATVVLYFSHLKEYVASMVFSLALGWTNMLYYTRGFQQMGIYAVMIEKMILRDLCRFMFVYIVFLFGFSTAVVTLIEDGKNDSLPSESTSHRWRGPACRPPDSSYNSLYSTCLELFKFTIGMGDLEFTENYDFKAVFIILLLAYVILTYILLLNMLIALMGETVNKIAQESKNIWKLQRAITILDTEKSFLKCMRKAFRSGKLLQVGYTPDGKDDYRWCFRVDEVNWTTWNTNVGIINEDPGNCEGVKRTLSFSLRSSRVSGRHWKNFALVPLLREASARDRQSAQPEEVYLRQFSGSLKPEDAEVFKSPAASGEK
Method: All error bars indicate SEM; p values in all subfigures but c represent analysis with one-way ANOVA Bonferroni's post hoc.
Human HEK 293 cells stably expressing TRPV1 were a kind gift from Merck Research Laboratories (Whitehouse Station, N.J.). Cells were cultured in minimal essential medium, Eagle, modified with non-essential amino acids, 1 mM sodium pyruvate, 2 mM L-glutamine and 1.5 g/L sodium bicarbonate (ATCC, Mabassas, Va.), containing 1% Penicillin-streptomycin, and 10% foetal bovine serum. Cells were passaged three times a week using Trypsin-EDTA 1× (Invitrogen, Carlsbad, Calif.) and grown under 5% CO2 at 37° C.
Calcium imaging of HEK 293 cells. TRPV1, TRPV3, and TRPV4 expressing HEK293 cells were plated 24-48 h before imaging in 96 well plates, loaded with 3 μM Fura-2 AM and imaged as previously described [O'dell, D. K., Rimmerman, N., Pickens, S. R. & Walker J. M. Fatty acyl amides of endogenous tetrahydroisoquinolines are active at the recombinant human TRPV1 receptor. […] Med. Chem. 15, 6164-6169 (2007)].

COX-2 = COX-2 production in LPS-stimulated RAW 264.7 cells; type: cell-based, mice; settings: 60 μM, P<0.001
Method: as §1
COX-2 Production. RAW 264.7 cells were treated with subtoxic concentrations (confirmed by MTT colorimetric assay) of incensole acetate (10-20 μg/ml, dissolved in ethanol and further diluted in medium) and incubated with lipopolysaccharide (LPS, E. coli 1 μg/ml for 24 hs, Sigma, Israel) for 16-24 hrs. […]
Proteins were extracted from cells in NP-40 lysis buffer (50 mM Tris/HCl pH 7.5, 150 mM NaCl, 0.1% SDS, 1% NP-40, 10 mM EDTA, 1 mM phenylmethylsulfonylfluoride (PMSF), and 10 mM DTT). Total protein concentration was determined using the Bradford method and the lysates were analyzed by Western blotting.

General toxicity in mice = type: in vivo; settings: single dose 150 mg/kg and 30 mg/kg 3 times a week for a month

Question: Which “NO generation (nitrite in supernatants), dose dependence” value (NO generation; LPS 1 μg/ml for 24 hrs, ANOVA P<0.0001) does the source give for `CC(=O)OC1CC/C(C)=C/CC/C(C)=C/CC2(C(C)C)CCC1(C)O2` (centres unmarked) [IA, incensole acetate] here?
Answer: Its value is “inhibited NO generation in a dose dependent manner”.

Question: What about the NO production (NO generation; at 80 μM, p=0.0022) of the same compound?
Answer: The NO production was “about 45%”.

Question: What about the “calcium influx in TRPV1-transfected HEK293 cells” value (TRPV1) of the same compound?
Answer: The value was “very small influx of calcium”.

Question: What about the COX-2 production (COX-2) of the same compound?
Answer: Its COX-2 production is “inhibited”.

Question: And the weight loss (General toxicity in mice)?
Answer: Its weight loss is “No weight loss was observed”.
